{"source": "paper PMC2625307", "about": "(Journal of molecular biology, 2008)", "key": {"NL4.3 env": {"tested_on": "NL4.3 env", "type": "cell-based, HIV-1 group M", "conditions": "JC53BL-13 cells, genetic distance to HXBc2 0.05769"}, "MN-25": {"tested_on": "MN-25", "type": "cell-based, HIV-1 group M", "conditions": "JC53BL-13 cells, genetic distance to HXBc2 0.17951"}, "YU2 gp120 [1]": {"biological_target": "T1, YU2 gp120 (Human immunodeficiency virus type 1 group M subtype B, UniProt P35961)", "parameters": "species or system HIV-1", "conditions": "vs other mimetics"}, "YU2 gp120 [2]": {"biological_target": "T1, YU2 gp120", "assay": "Surface-plasmon resonance binding, YU2 gp120", "parameters": "species or system HIV-1"}, "IIIB": {"tested_on": "IIIB", "type": "cell-based, HIV-1 group M", "conditions": "PM1 cells, genetic distance to HXBc2 0.03060"}, "HXBc2 gp120": {"biological_target": "HXBc2 gp120 (Human immunodeficiency virus type 1 group M subtype B, UniProt P04578)", "assay": "Surface-plasmon resonance binding, HXBc2 gp120", "parameters": "species or system HIV-1"}, "YU2 gp120 [3]": {"biological_target": "T1, YU2 gp120", "assay": "Contact surface area of gp120, YU2", "parameters": "species or system HIV-1"}, "HIV-1 gp120": {"tested_on": "HIV-1 gp120", "conditions": "vs biphenyl counterpart (CD4M33, CD4M47)"}, "GAB-2 62 fl": {"tested_on": "GAB-2 62 fl", "type": "cell-based, SIVcpz (P.t.t)", "conditions": "JC53BL-13 cells, genetic distance to HXBc2 0.47819"}, "BaL": {"tested_on": "BaL", "type": "cell-based, HIV-1 group M", "conditions": "PM1 cells, genetic distance to HXBc2 0.13532"}, "YU-2 env": {"tested_on": "YU-2 env", "type": "cell-based, HIV-1 group M", "conditions": "JC53BL-13 cells, genetic distance to HXBc2 0.16766"}, "GAB-1 fl": {"tested_on": "GAB-1 fl", "type": "cell-based, SIVcpz (P.t.t)", "conditions": "JC53BL-13 cells, genetic distance to HXBc2 0.43711"}}}
{"smiles": "CC(C)C[C@@H]1NC(=O)CNC(=O)[C@H](CC(C)C)NC(=O)[C@H](CO)NC(=O)[C@H](CCCCN)NC(=O)[C@@H]2CSSC[C@@H](C(=O)N[C@H](C(N)=O)C(C)C)NC(=O)[C@H](C)NC(=O)[C@@H]3CSSC[C@H](NC(=O)[C@H](Cc4ccccc4)NC(=O)[C@H](Cc4c[nH]cn4)NC(=O)[C@H](CC(C)C)NC(=O)[C@H](CC(N)=O)NC(=O)CCSSC[C@H](NC(=O)[C@H](CCCCN)NC(=O)CNC(=O)[C@H](CC(C)C)NC1=O)C(=O)N[C@@H](C)C(=O)NCC(=O)N[C@@H](CO)C(=O)N[C@@H](Cc1ccccc1)C(=O)N3)C(=O)N[C@@H](CCC(N)=O)C(=O)N[C@@H](CC(C)C)C(=O)N[C@@H](CCCNC(=N)N)C(=O)N2", "note": "[[Phe^23]M33]", "values": [{"measurement": "IC50", "setting": "NL4.3 env", "result": 13, "unit": "nM"}, {"measurement": "IC50", "setting": "MN-25", "result": 3600, "unit": "nM"}, {"measurement": "similarity of induced gp120 conformation to that induced by CD4", "setting": "YU2 gp120 [1]", "result": "the closest mimic to CD4"}, {"measurement": "Kd", "setting": "YU2 gp120 [2]", "result": "35.1 ± 0.18", "unit": "nM"}, {"measurement": "IC50", "setting": "IIIB", "result": 260, "unit": "nM"}, {"measurement": "Kd", "setting": "HXBc2 gp120", "result": "18.9 ± 0.14", "unit": "nM"}, {"measurement": "Contact surface area of gp120, total", "setting": "YU2 gp120 [3]; asymmetric unit molecule (1)", "result": 363.8, "unit": "Å^2"}, {"measurement": "Contact surface area of gp120, total", "setting": "YU2 gp120 [3]; asymmetric unit molecule (2)", "result": 398.0, "unit": "Å^2"}, {"measurement": "on-rate compared with biphenyl counterpart", "setting": "HIV-1 gp120", "result": "about half as fast"}, {"measurement": "IC50", "setting": "GAB-2 62 fl", "result": 1000, "unit": "nM"}, {"measurement": "IC50", "setting": "BaL", "result": 200, "unit": "nM"}, {"measurement": "IC50", "setting": "YU-2 env", "result": 1000, "unit": "nM"}, {"measurement": "IC50", "setting": "GAB-1 fl", "result": 350, "unit": "nM"}]}
